Experiments:
Bovine brain tubulin [1] = assay: Inhibition of tubulin polymerization (turbidimetric assembly assay); type: biochemical
Description: (§1) Bovine brain tubulin was purified as described previously. To evaluate the effects of the compounds on tubulin assembly in vitro [80], varying concentrations were preincubated with 10 μM tubulin in 0.8 M monosodium glutamate (pH 6.6) at 30 °C and the reaction mixtures then cooled to 0 °C. After addition of GTP, the mixtures were transferred to 0 °C cuvettes in Beckman Coulter (Brea, CA, USA) DU-7400/DU-7500 recording spectrophotometers equipped with electronic temperature controllers and warmed to 30 °C, and the assembly of tubulin was observed turbidimetrically. […] Inhibition of colchicine binding to tubulin was measured as described before, except that the reaction mixtures contained 0.5 μM tubulin and 5 μM each of [^3H]colchicine and test compound. Only one DEAE-cellulose filter was used per sample, and filtration was by gravity.
(§2) Bovine brain tubulin (see ref. [79] for details of purification) was used to examine effects on tubulin polymerization and colchicine binding. Briefly, in the polymerization experiments, different compound concentrations were preincubated with 10 µM tubulin for 15 min at 30 °C and cooled on ice. After GTP was added to each reaction mixture, the samples were transferred to 0 °C cuvettes in recording spectrophotometers with electronic temperature controllers. The temperature was raised to 30 °C over about 30 s, and turbidity development was followed for 20 min at 350 nm. […] In the current studies, [^3H]colchicine (from American Radiolabeled Corp., St. Louis, MO) binding was measured after 10 min at 37 °C. Reaction mixtures contained 0.5 µM tubulin and 5.0 µM each of the [^3H]colchicine and the potential inhibitor, and a single DEAE-cellulose filter was used for each sample, with gravity filtration.

Bovine brain tubulin [2] = assay: Inhibition of [3H]colchicine binding to tubulin; details: tubulin 0.5 µM, [3H]colchicine 5 µM, tested compound 5 µM
Description: as §1, §2

HeLa cells [3] = assay: Apoptosis assay, annexin-V-FITC/PI flow cytometry; type: cell-based, human
Description: The quantification of the apoptosis induced by the test compounds was carried out by flow cytometric analysis using the Annexin-V Fluos kit (Roche Diagnostics, Rotkreuz, Switzerland) following the manufacturer’s instructions. The HeLa cells treated with the test compounds for different incubation times and at the indicated concentrations were then labeled with annexin V/FITC and PI and analyzed with Coulter Cytomics FC500 (Beckman Coulter) in the FL1 and FL3 channel, respectively.

HeLa cells [4] = assay: Mitochondrial potential, JC-1 flow cytometry; type: cell-based, human; details: 24 h treatment, increased further at 48 h
Description: The analysis of the mitochondrial potential was carried out by flow cytometric analysis. Briefly, the cells treated with the test compound were labeled with the JC-1 dye as previously described. The labeled cells were analyzed using the Coulter Cytomics FC500 (Beckman Coulter) in the FL1 and FL2 channel, respectively.

[5] = system: Wild-type AB zebrafish embryos; assay: Drug toxicity assessment on zebrafish embryos; type: in vivo, Zebrafish (Danio rerio); details: 6 hpf to 72 hpf
Description: Zebrafish (Danio rerio) were obtained, staged and raised as described previously and maintained according to the OPBA of the Istituto di Ricerca Pediatrica guidelines. All procedures were conducted following the recommendations and the guidelines of the Animal Use Ethics Committee concerning the protection of animals used for scientific purposes.
Wild-type AB zebrafish embryos were treated with chemicals from shield stage (6 hpf) to larval stage (72 hpf) in a 12-well plate, by adding 20 larvae/well for each experimental condition. The zebrafish embryos were treated with compound 3d at the concentration of 30 nm and 300 nM. These concentrations were selected on the basis of the IC50 found above in HeLa cells. The drugs were added directly to the fish water diluted directly from the stock solution in DMSO. […] Subsequently, the treated embryos were kept at a constant temperature (28.5 °C). Embryos are monitored daily through a stereo microscope (Nikon SMZ745T; Nikon, Japan) and the morphological changes as well as the number of dead embryos were evaluated and recorded.

SMILES: COc1cc(-c2ccnc3nc(Nc4ccc(C)cc4)nn23)cc(OC)c1OC [Compound 3d, N-(p-Tolyl)-7-(3,4,5-trimethoxyphenyl)-[1,2,4]triazolo[1,5-a]pyrimidin-2-amine]
- fold more active than CA-4 as inhibitor of tubulin assembly (Bovine brain tubulin [1]): 2 fold
- fold more potent than 2a as inhibitor of tubulin assembly (Bovine brain tubulin [1]): ~2 fold
- IC50 (Bovine brain tubulin [1]; tubulin at 10 μM, 20 min incubation, read-out: Tubulin Assembly IC50 ± SD): 450 ± 100 nM
- Colchicine Binding % Inhibition ± SD (Bovine brain tubulin [2]): 72 ± 5%
- necrotic cells (A−/PI+) (HeLa cells [3]; 50 nM, long incubation times): about 25%
- induction of apoptosis (HeLa cells [3]; HeLa, 24 or 48 h): induced, in a concentration- and time-dependent manner, apoptosis
- mitochondrial depolarization (JC-1 monomers) (HeLa cells [4]): significant increase in the percentage of monomers
- toxicity to zebrafish embryos ([5]; 30 nM in fish water): no morphological abnormalities or embryonic lethality
- toxicity to zebrafish embryos ([5]; 300 nM in fish water, edema re-absorbed within the next 24 h): small yolk sac edema in the majority of 48 hpf embryos

From paper PMC9415608, “Design, Synthesis and Biological Investigation of 2-Anilino Triazolopyrimidines as Tubulin Polymerization Inhibitors with Anticancer Activities” (Pharmaceuticals, 2022)
